Several values for one entry are separate records, joined by “and”; a condition that tells them apart may be missing. Equal entries are not always repeated.
Test system: LARGE protein
Experiment: Stimulation of the expression of LARGE protein in normal human keratinocytes (immunocytochemical staining)
Assay type: cell-based
Details: 48 hours, visual staining scale from 1 to 5, untreated keratinocytes 2.03, one donor
Description: The effect of the Resveratrol used in Example 4 on the expression of the LARGE protein was evaluated in cultured keratinocytes. Keratinocytes derived from neonatal foreskin (Invitrogen, CA, USA) were cultivated in 6-well plates containing cover glasses coated with poly-L-ornithine (Sigma, MO) in keratinocyte culture medium with supplement (EpiLife, Invitrogen). After culturing for 24 hours at 37° C., the 40-50% confluent cells were washed with PBS buffer (Invitrogen, CA) and incubated with basal keratinocytes culture medium (EpiLife, Invitrogen) containing the extract to be tested, for 48 hours. The cytotoxicity of the extract was evaluated in human cultured keratinocytes before testing the activity. To quantify the expression of the LARGE protein in a treated sample relative to an untreated sample, immunocytochemical staining (ICC) of cover glasses with cultured keratinocytes was used. Staining was performed in triplicates, with primary goat anti-human LARGE antibodies (Santa Cruz, Calif.) and secondary donkey anti-goat antibodies (Rockland Immunochemicals, PA). The staining was visualized with AEC system (Lab Vision Corporation, CA). The extent of staining was assessed on thirty random images for each experimental condition, and a visual assessment of the staining was made using a scale from 1 to 5, with 1 being the least intense and 5 being the most intense. The significance of the difference between mean values was assessed using unpaired t test.

Compound: Oc1ccc(C=Cc2cc(O)cc(O)c2)cc1 [Resveratrol]
- Stimulation of LARGE protein (0.0005% (w/w)): 2.7 (±0.88) and 2.70
- Stimulation of LARGE protein (0.001% (w/w)): 2.67 (±0.55) and 2.67
- Stimulation of LARGE protein (0.002% (w/w)): 3.8 (±0.93) and 3.80
